Here are results for one compound from patent US4098823A, “Monospiroalkyl derivatives of prostaglandins” (Miles Laboratories, Inc., priority 1977, dated 1978).

Assay [1] has as its system Human Platelet Aggregation. Description: Inhibition of Human Platelet Aggregation. Format: cell-based. As to conditions: in vitro. The procedure: The ability of test compounds to inhibit platelet aggregation was determined by a modification of the turbidometric technique of Born (Nature, 194:927 [1962]). Blood was collected from human volunteers who had not ingested aspirin or aspirin-containing products within the preceding two weeks in heparinized containers and was allowed to settle for one (1) hour. The platelet rich plasma (prp) supernates were collected and cooled. Siliconized glassware was used throughout.
In a representative assay 1.9 ml of PRP and 0.2 ml of test compound at the appropriate concentrations (0.001 to 100 mcgm), or 0.2 ml of distilled water (control procedure) were placed in sample cuvettes. The cuvettes were placed in a 37° C incubation block for 15 minutes, and then in a spectrophotometer linked to a strip chart recorder. After 30-60 seconds, 0.2 ml of a solution, prepared by diluting a calf-skin collagen solution 1:9 with Tyrodes' Solution, was added to each cuvette. Platelet aggregation was evidenced by a decrease in optical density.
An ED50 value was then determined graphically.

A further assay concerns Rat Uterus. Description: Effects on the Rat Uterus in Vitro. Type of assay: cell-based. As to conditions: Rattus norvegicus; in vitro, 29° C; response 50% that of carbachol; read-out: Test F Rat Uterus, Activity Value (ED50). Put shortly:
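Uterine segments came from rats (140–160 g) given 1 mg/kg diethylstilbestrol s.c. 18 h earlier. Tissue was held isometrically at 1 g tension in de Jalon solution at 29 °C, gassed with 95% O2/5% CO2. Compound was tested at 0.001–10 mcg/ml in log steps, every 10 min with washes, and ED50 was derived graphically as 50% of the second carbachol (1 mcg/ml) response.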

A value given as a limit tells only on which side of the number the result lay.

For the compound `COC(=O)CCCCCC[C@H]1C(=O)C[C@@H](O)[C@@H]1/C=C/[C@H](O)C1CC2(CCC2)C1` [TR-4120, Methyl 7-{3R-hydroxy-5-oxo-2R-[3R-hydroxy-3-(spiro[3.3]hept-2-yl)-1E-propenyl]cyclopent-1R-yl}heptanoate], the “inhibition of aggregation of human platelets, in words” value in assay [1] was “inhibit aggregation of platelets”. The EC50 with Rat Uterus is above 10 µg/mL.
